Reference: article PMC6463794, “Inhibition of CDC25B With WG-391D Impedes the Tumorigenesis of Ovarian Cancer” (Frontiers in Oncology, 2019)

Target: T1, CDC25B (Homo sapiens, UniProt P30305)
T1 construct: recombinant CDC25B protein
T1 sequence (P30305 1-580): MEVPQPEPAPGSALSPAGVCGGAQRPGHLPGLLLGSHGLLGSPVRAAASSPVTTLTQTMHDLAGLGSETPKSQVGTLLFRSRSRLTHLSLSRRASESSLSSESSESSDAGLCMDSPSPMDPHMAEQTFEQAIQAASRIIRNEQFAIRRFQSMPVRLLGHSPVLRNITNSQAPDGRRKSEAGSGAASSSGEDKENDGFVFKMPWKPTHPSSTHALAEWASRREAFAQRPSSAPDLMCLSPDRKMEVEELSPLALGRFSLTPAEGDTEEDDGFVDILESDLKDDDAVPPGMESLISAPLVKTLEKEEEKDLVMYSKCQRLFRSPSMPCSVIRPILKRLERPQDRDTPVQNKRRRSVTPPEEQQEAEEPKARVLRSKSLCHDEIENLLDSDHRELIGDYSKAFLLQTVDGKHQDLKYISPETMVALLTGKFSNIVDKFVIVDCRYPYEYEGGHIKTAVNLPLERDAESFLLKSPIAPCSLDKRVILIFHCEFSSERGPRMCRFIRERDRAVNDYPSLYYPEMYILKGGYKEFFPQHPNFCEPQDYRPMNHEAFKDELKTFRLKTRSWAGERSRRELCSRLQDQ
Test: fluorometric phosphatase assay (3-O-methylfluorescein phosphate) with recombinant CDC25B; positive-control inhibitor, single concentration
Assay type: biochemical
Procedure: fluorometric phosphatase assay (3-O-methylfluorescein phosphate) with recombinant CDC25B; positive-control inhibitor, single concentration on CDC25B | CDC25B dephosphorylation catalytic activity was determined by in vitro enzyme assay. ... PC, NSC663284 served as the positive control.

O=C1C(Cl)=C(NCCN2CCOCC2)C(=O)c2ncccc21 [PC, NSC663284]
fluorometric phosphatase assay (3-O-methylfluorescein phosphate) with recombinan: CDC25B dephosphorylation catalytic activity was determined by in vitro enzyme assay. ... PC, NSC663284 served as the positive control.
